Experimental findings from PubChem BioAssay (NCI) are described below.

Test systems include MDA-N; SNB-78 CNS; MDA-MB-231 breast; LXFL 529 NSCLC; RXF-631 renal; MCF7 breast; KM20L2 colon; T-47D breast; MDA-MB-435; ACHN renal; PC-3 prostate; P388/ADR leukemia; SN12K1 renal; XF 498 CNS.
Assay in all cases: NCI tumour cell line growth inhibition, 48 h

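All cell lines were grown in 96-well plates and treated with compound for 48 hours. GI50 marks 50% less growth. TGI marks complete inhibition of growth.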 Where only a bound is given, the exact number is not on record here.

`COc1ccc2nc3ccccc3c(NCCCCCCN(CCCl)CCCl)c2c1`: the TGI in the test on MDA-N is 0.656 µM; with SNB-78 CNS, 2.13 µM; in the test with MDA-MB-231 breast, 3.37 µM; in the test on LXFL 529 NSCLC it was 1.72 µM; in the test with RXF-631 renal, 1.96 µM; with MCF7 breast, 0.157 µM. Further, the TGI with KM20L2 colon is 2.07 µM.

Regarding `COC(=O)C1=C(C(=O)OC)SC2(S1)C1=C(CCCC1)SC(C(=O)OC)=C2C(=O)OC`, the TGI was determined as 15.2 µM with MDA-N; 13.5 µM in the test with T-47D breast; 10 µM in the test with MDA-MB-435; 18.4 µM with ACHN renal; 29.3 µM in the test with MDA-MB-231 breast; 8.43 µM with MCF7 breast. For the same compound, in the test on PC-3 prostate, the TGI came to 17.8 µM.

On to `Nc1ccc2[nH]c3c(-c4ccccc4)nccc3c2c1`, for which the TGI with SNB-78 CNS, in the test on P388/ADR leukemia, in the test with SN12K1 renal, with MCF7 breast, in the test with KM20L2 colon and in the test with XF 498 CNS was greater than 100 µM throughout.

As for `COc1cc(Nc2c3ccccc3nc3ccccc23)ccc1NS(C)(=O)=O`, the TGI came out at 47.1 µM in the test with SNB-78 CNS, 14.8 µM in the test with ACHN renal, 35 µM in the test on LXFL 529 NSCLC and 17.1 µM with KM20L2 colon.

Turning to `O=C(NC(Cc1ccc(I)cc1)C(=O)O)c1ccc(Br)cc1` (stereo unspecified), the TGI is greater than 100 µM in the test with SNB-78 CNS; greater than 31.6 µM in the test on P388/ADR leukemia; greater than 100 µM in the test with SN12K1 renal; greater than 100 µM in the test on MCF7 breast; greater than 100 µM in the test with KM20L2 colon; greater than 100 µM in the test with XF 498 CNS.

With `C[C@]12CCc3nc(Nc4ccccc4)sc3C1=CC[C@@H]1[C@@H]2CC[C@]2(C)/C(=N/NC(N)=S)CC[C@@H]12`, the GI50 is 2.85 µM in the test with T-47D breast; 3.05 µM in the test on MDA-MB-435; 3.67 µM in the test with ACHN renal; 4.43 µM in the test on MDA-MB-231 breast; 1.08 µM in the test on MCF7 breast; 2.95 µM in the test with PC-3 prostate. Moreover, the TGI in the test with T-47D breast, in the test on MDA-MB-435, in the test on ACHN renal, in the test with MDA-MB-231 breast, in the test on MCF7 breast and in the test on PC-3 prostate was greater than 100 µM each time.

As for `COc1ccc(/C(Cl)=C(\C=O)c2ccc(F)cc2)cc1OC`, the TGI is 62.5 µM in the test on SNB-78 CNS; 58.6 µM with ACHN renal; 76.7 µM in the test on LXFL 529 NSCLC; 49.2 µM in the test on RXF-631 renal; 34.1 µM in the test with KM20L2 colon.

For the compound `N=C(N)c1ccc(N=Nc2c(O)ccc3c2[nH]c2ccccc23)cc1`, the TGI with MDA-N was 50.6 µM; with MDA-MB-435, greater than 39.6 µM; in the test on ACHN renal it was 86.4 µM; with PC-3 prostate, greater than 60.3 µM.
